From the METLIN SMRT retention time set (Domingo-Almenara et al. 2019)

Assay: gradient 5% acetonitrile 3 min, to 50% in 2 min, to 85% in 15 min, held 3 min, 100 µL/min
Details: column: Zorbax Extend-C18 2.1 x 50 mm; eluents: water / acetonitrile, 0.1% formic acid
Summary of the method: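 A Zorbax Extend-C18 column (2.1 × 50 mm, 1.8 μm) run at 100 μL/min with water and acetonitrile, both containing 0.1% formic acid, separated mixtures of ~100 pure standards. The HPLC was coupled to a quadrupole time-of-flight mass spectrometer operated in positive and negative ionization mode, with dead and dwell volumes of 40 μL and 900 μL. Each retention time was taken from a computationally picked adduct peak that was then manually inspected.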

SMILES | RP-LC retention time [s]
Cc1[nH]nc(-c2c(C)sc(C)c2S(=O)(=O)Nc2ccc(Cl)cc2)c1C | 1060
O=C(c1ccncc1)N1CCC2(CC1)N=C(c1ccc(Cl)cc1)NO2 | 625
CCc1c(C2CCN(C(=O)c3cccc(C#N)c3)CC2)noc1N | 690
O=C(Cc1cc(-c2cc3ccccc3o2)on1)NCCc1c[nH]c2ccccc12 | 883
Cc1ccc(Cl)c(NC(=O)c2[nH]c3cc(C)sc3c2CN(C)C)c1 | 688
Cc1cccc(Cn2c(=O)n(C)c(=O)c3snc(-c4ccccn4)c32)c1 | 925
Cc1ncsc1C1N(C2CCN(C(=O)C3CC3)CC2)C(=O)C12CCCC2 (centres undefined) | 696
Cc1cccc(-c2noc(CSc3nc4cc5c(cc4c(=O)n3CC3CCCO3)OCO5)n2)c1 (centres undefined) | 1170
COc1ccc(OC)c(NC(=O)c2[nH]c3cc(C)sc3c2CN(C)C)c1 | 692
Cc1ccccc1CNC(=O)C1(C)CCCN(C(=O)NC2CCCCC2)C1 (centres undefined) | 904
O=C(NCc1nnc(SC/C=C/c2ccccc2)o1)c1ccccc1 | 824
COc1cccc(S(=O)(=O)N2CCC3(CC2)CC(OC)CCO3)c1 (centres undefined) | 865
CCN1CCCn2cc(S(=O)(=O)Nc3cc(OC)cc(OC)c3)cc2C1=O | 704
CS(=O)(=O)N1CCOc2ccc(CCC(=O)NC3CCS(=O)(=O)C3)cc2C1 (centres undefined) | 644
COc1ccc2[nH]c3c(c2c1)CCNC3 | 365
COc1ccc(-n2c(=O)n(C)c(=O)c3cc(C(=O)NCc4ccco4)cnc32)cc1 | 764
CCc1nc(-c2csc(S(=O)(=O)N3CCC(C(=O)NCC4CCCO4)CC3)c2)no1 (centres undefined) | 764
CN1C(=O)c2cccnc2Sc2cc(NC(=O)c3ccccc3Br)ccc21 | 785
O=S(=O)(c1ccc(Cl)cc1)c1nc(-c2ccco2)oc1NCCCn1ccnc1 | 597

SMILES | RP-LC retention time [s]
COc1ccc(OC)c(CNC(=O)NC2COc3ccc(OC)cc3C2)c1 (centres undefined) | 810
CCOC(=O)N1CCN(S(=O)(=O)CCNC(=O)c2ccccc2)CC1 | 669
Cc1cnc(C(=O)N[C@@H]2CCC[C@@H]2C(=O)NC2CCCC2)cn1 | 638
COCC(=O)N1CC2CN(S(=O)(=O)c3cccc(F)c3)CC(C1)O2 | 660
COC(=O)Cc1c(C(=O)OC)nnn1-c1ccc(OC)cc1 | 862
CCc1nccn1Cc1nc(-c2cccc(F)c2)no1 | 625
O=C(NCc1ccccc1)c1nc2ccccn2c1-c1ccsc1 | 842
CCN1C=C(C(=O)OCc2ccccc2C)C(C)=NS1(=O)=O | 1030
Cc1nnc2cc(N3CCN(S(=O)(=O)c4cccs4)CC3)cnn12 | 636
CCOc1ccccc1-c1noc(Cn2c(=O)n(-c3ccc(F)cc3)c(=O)c3sccc32)n1 | 956
CCC(CC)N1CCN(C(=O)c2ccc3[nH]c4c(c3c2)CN(C(=O)C2CCC2)CC4)CC1 | 607
CCOc1ccc(N(CC)C(=O)c2nc(N(C)C)c3cnn(C)c3n2)cc1 | 745
O=C1COc2cc(S(=O)(=O)N3CCC(C(=O)N4CCOCC4)CC3)c(Cl)cc2N1 | 659
O=C(c1cccs1)N1CCN(c2ccc(-c3noc(C4CC4)n3)cc2)CC1 | 949
Clc1ccc(-c2nc(NCc3cccs3)c3ccccc3n2)cc1 | 842
COC(=O)c1ccc(S(=O)(=O)NCc2nc(C)no2)cc1 | 659
COc1cccc(-c2nc(Cn3cnc4ccccc4c3=O)no2)c1OC | 802
Cc1nc(-c2cc(S(=O)(=O)Nc3ccc(Br)c(C)c3)c(C)s2)cs1 | 1120
COc1ccc(-c2cnn3c(C)cc(C)nc23)cc1S(=O)(=O)N1CCN(C2CCCCC2)CC1 | 690

SMILES | RP-LC retention time [s]
COc1ccc(NC(=O)N2CCc3cn(C)c4cccc(c34)C2)cc1 | 844
Cc1ccsc1CN1CCCC(c2nc(-c3cccnc3)n[nH]2)C1 (centres undefined) | 561
O=c1c(=O)n(-c2ccccc2)ccn1Cc1nc(-c2cccc(F)c2)no1 | 805
CCNc1cc(N2CCC(CCC(=O)NCc3c(C)nn(C)c3C)CC2)ncn1 | 575
COc1ccc(-c2csc(NC(=O)CS(=O)(=O)c3ccc(Cl)cc3)n2)cc1OC | 926
O=C(NCCCn1c(C(F)(F)F)nc2cccnc21)Nc1ccccc1 | 776
O=C(CCn1cnc2cc(-c3noc(-c4ccc5c(c4)OCO5)n3)ccc21)N1CCCC1 | 727
COc1ccc2[nH]c(=O)c(CCC(=O)N(C)CCc3ccccn3)cc2c1 | 578
CCS(=O)(=O)Nc1ccc(-c2noc(C(C)NC(=O)c3ccccc3)n2)cc1 (centres undefined) | 777
COC(=O)c1nnn(-c2cccc(C)c2C)c1C(=O)OC | 878
COc1ccc(-n2ccc(=O)c(-c3nc(-c4ccc(Cl)cc4)no3)n2)cc1 | 938
Cc1ccc(-c2nc3cnccn3c2Nc2ccc(C(C)C)cc2)cc1 | 1140
CCC1(O)CCOC2(CCN(C(=O)CC3CC3)CC2)C1 (centres undefined) | 627
Oc1c(C(Nc2cccc(Cl)c2)c2cccnc2)ccc2cccnc12 (centres undefined) | 692
COCCCNC(=O)c1cc(-c2ccccc2)nc2n[nH]c(-c3ccccc3)c12 | 769
Cc1ccc(-c2nnc(Cc3nc(-c4ccccc4Cl)no3)o2)cc1C | 1230
COc1cc(NC(=O)NC(C(=O)N2CCc3ccccc32)C(C)C)cc(OC)c1 (centres undefined) | 982
COc1ccc(OC)c2sc(NC(=O)CS(=O)(=O)c3ccc(Cl)cc3)nc12 | 854

Next, values leading:

RP-LC retention time [s] | SMILES
736 | O=C(Nc1ccc(F)cc1)C1CCCN(c2cnc3nccnc3c2)C1 (centres undefined)
817 | COc1ccccc1C1(CNC(=O)Cc2ccccc2Cl)CCOCC1
846 | Cc1ccc(NC(=O)Cn2ncc3c(c2=O)N(CC2CC2)C(=O)CS3)c(Cl)c1
668 | COc1cccc(CNC(=O)C2(C)CCN(C(=O)NCC3CCCO3)CC2)c1 (centres undefined)
998 | COc1ccc(-c2noc(C3CC(=O)N(c4cccc(Cl)c4)C3)n2)cc1 (centres undefined)
620 | CNC(=O)C1CCCN(c2nc3ncn(CC(=O)NCc4ccccc4)c(=O)c3s2)C1 (centres undefined)
740 | O=C(C1CC(=O)N(C2CCCCCC2)C1)N1CCCN(c2ccc(=O)n(-c3ccccc3)n2)CC1 (centres undefined)
876 | CCOC(=O)c1ccccc1NC(=O)C1CCCN(c2ncnc3c2nc2n3CCCCC2)C1 (centres undefined)
929 | CN(C)CCNC(=O)C1CCCN(c2ccc(=O)n(-c3cccc(Cl)c3)n2)C1 (centres undefined)
687 | COc1ccccc1NC(=O)N1CCCN(Cc2nc3cc(Cl)ccc3o2)CC1
751 | Cc1ccc(C(=O)CC2(O)C(=O)Nc3ccccc32)cc1C (centres undefined)
888 | Cn1nc(C2CCN(S(=O)(=O)Cc3cccc(Cl)c3)CC2)n(C2CCCC2)c1=O
990 | CC(=O)Nc1ccc(S(=O)(=O)N2CCCC2c2nc(-c3ccc(F)cc3)no2)cc1Cl (centres undefined)
755 | COC(=O)c1ncn2c1C(=O)N(Cc1ccc(Cl)cc1)C(C)(C(=O)NCc1ccccc1)C2 (centres undefined)
945 | CCN(CC)S(=O)(=O)c1ccc2c(c1)N(CC(=O)NCc1ccccc1)C(=O)C1CCCCN21 (centres undefined)
753 | COC(=O)c1ccc2c(=O)n(-c3ccc(Cl)cc3)c(N3CCN(c4ccccn4)CC3)nc2c1
902 | CC(=O)c1cccc(NC(=O)Cn2nc3c4cc(-c5ccc(Cl)cc5)nn4ccn3c2=O)c1

RP-LC retention time [s] | SMILES
715 | Cn1c(N2CCCC(C(=O)NC3CCCCCC3)C2)cc(=O)n(C)c1=O (centres undefined)
971 | Cn1c(=O)c(N2CCC(NC(=O)Nc3ccc(F)c(Cl)c3)CC2)nc2ccccc21
881 | O=C(NCc1ccccc1Cl)C1c2ccccc2CCN1C(=O)C1CC1 (centres undefined)
839 | Cc1cc(C)n(CC(=O)N2CCC(c3nc(-c4ccncc4)no3)C2)n1 (centres undefined)
794 | Cc1ccc(C2Cn3cnc(C(=O)N4CCC(C(=O)NC5CCCCC5)CC4)c3CO2)cc1 (centres undefined)
1030 | COc1ccc(NC(=O)C2CCCN(c3nccnc3Sc3ccccc3)C2)cc1 (centres undefined)
1090 | COC(=O)c1ccc2c(=O)n(Cc3ccc(F)cc3)c(N3CCSC3)nc2c1
839 | CN(CCc1noc(-c2ccc(C(=O)NC3CCCC3)cc2)n1)C(=O)c1ccccc1F
762 | CC(=O)N1CCc2ccccc2C1C(=O)NCc1ccc(F)cc1 (centres undefined)
1010 | CC1(C(=O)NCc2ccc(F)cc2)CCN(S(=O)(=O)c2ccc(Br)s2)CC1
806 | COCCn1c(C2CCN(S(=O)(=O)c3ccc(Cl)cc3)C2)nc2cccnc21 (centres undefined)
774 | O=C(C1CCN(c2cnn(Cc3ccccc3)c(=O)c2)CC1)N1CCCCCC1
645 | COc1ccc(NC(=O)c2ccc(-n3cnc(NC(=O)C4CC4)c3)cc2)cc1OC
740 | CCCCN(C)C(=O)c1ccc(-c2nnc3ccc(NC(=O)CC)cn23)cc1
590 | CCOC(=O)CCNC(=O)N1CCN(Cc2nc3cccnc3n2-c2ccccc2)CC1
691 | CCCCNC(=O)C1CCCN(C(=O)c2[nH]c(C)cc2C)C1 (centres undefined)
